From US12642769B2, “Delivery carrier into cell” (Kabusikikaisya ITO, priority 2019, dated 2026)

Legend:
Type in all cases: cell-based
[1] = tested on: LabCyte EPI-MODEL normal skin epidermis model; assay: in vitro skin irritation test OECD TG-439, temperature-responsive carriers; conditions: the lower the score, the higher the toxicity; Water (negative control) 100 points
Protocol: In Vitro Skin Irritation Test of Cultured Cell According to OECD Guidelines. OECD
Guidelines for the Testing of Chemicals, 439. (2015)
LabCyte EPI-MODEL was used as a normal skin epidermis model, and a skin irritation test was performed and scored. As a result (the lower the score, the higher the toxicity), the score is 3 points for 5% SLS (positive control), 100 points for Water (negative control), 125 points for A-1 of the present invention, and B-1 was 101, C-1 was 89, and D-1 was 83, and the viable cell rate was 50% or higher in all the formulations. All skin irritation was denied.

[2] = tested on: LabCyte EPI-MODEL normal dermal epidermis model; assay: in vitro skin irritation test OECD 439, pH-responsive carriers; conditions: the lower the score, the higher the toxicity; Water (negative control) 100 points
Protocol: In vitro skin irritation tests were conducted using cultured cell according to OECD guidelines. We used OECD GUIDELINES FOR THE TESTING OF CHEMICALS, 439. (2015) for guidelines. As a result of the skin irritation test using LabCyte EPI-MODEL as a normal dermal epidermis model (the lower the score, the higher the toxicity and the lower the safety), the scores were 3 points for 5% SLS (positive control) and 100 points for Water (negative control), 134 points for A-2, 109 points for B-2,95 points for C-2, and 91 points for D-2, and the percentage of viable cell was more than 50% for all the preparations and the skin irritation was denied.

[3] = tested on: LabCyte EPI-MODEL normal skin epidermis model; assay: in vitro skin irritation test OECD 439, photoresponsive carriers; conditions: the higher the score, the higher the safety; Water (negative control) 100 points
Protocol: In vitro skin irritation tests were performed on cultured cell according to OECD guidelines. The guidelines used were OECD GUIDELINES FOR THE TESTING OF CHEMICALS, 439. (2015). LabCyte EPI-MODEL was used as a normal skin epidermis model, and a skin irritation test was performed and scored. As a result (the higher the score, the higher the safety), the score is 5% SLS (positive control) 3 points, Water (negative control) 100 points, A-1 of the present invention is 111 points, B-1 was 98 points, C-1 was 87 points, and D-1 was 79 points. The viable cell rate of all the preparations was 50% or more, and skin irritation was denied.

Measured: skin irritation test score

CCCCCCCCCCCCOS(=O)(=O)[O-].[Na+] [SLS]
3 points: all assays above
